SMILES strings stand for the structures. “And” between values parts separate entries of the source, which are not always exact repeats. Equal entries are not always repeated. Where two headings read alike, the source gives them in different places.

These results are taken from patent publication EP0369391A2, “N-substituted amides” (BOEHRINGER INGELHEIM PHARMACEUTICALS INC., priority 1988, dated 1990).

Test [1] concerns the target T1, human neutrophil elastase (HNE) (Homo sapiens, UniProt P08246).
T1 sequence (P08246 30-247 limits assumed): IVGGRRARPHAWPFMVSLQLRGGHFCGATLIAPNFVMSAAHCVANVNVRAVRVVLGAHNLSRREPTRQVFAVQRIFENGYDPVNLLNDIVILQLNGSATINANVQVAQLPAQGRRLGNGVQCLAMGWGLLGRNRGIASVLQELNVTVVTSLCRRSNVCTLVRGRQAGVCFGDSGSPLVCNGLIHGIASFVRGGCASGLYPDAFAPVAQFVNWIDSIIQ
Nature of the test: Elastase Inhibition - Animal Model (acute hamster hemorrhage model). As to conditions: 20 ug i.t. compound, 50 µg HNE i.t., hemorrhage in lung lavage after 18 hours.

Test [2] has as its target T2, Human sputum elastase ( HSE ) (Homo sapiens, UniProt P08246).
T2 construct: Human sputum elastase ( HSE ) (Elasten Products Co., Pacific, Mo.); purchased Elasten Products Co., Pacific, Mo; host or cells: human sputum (by the name of the product)
T2 sequence (P08246 30-267): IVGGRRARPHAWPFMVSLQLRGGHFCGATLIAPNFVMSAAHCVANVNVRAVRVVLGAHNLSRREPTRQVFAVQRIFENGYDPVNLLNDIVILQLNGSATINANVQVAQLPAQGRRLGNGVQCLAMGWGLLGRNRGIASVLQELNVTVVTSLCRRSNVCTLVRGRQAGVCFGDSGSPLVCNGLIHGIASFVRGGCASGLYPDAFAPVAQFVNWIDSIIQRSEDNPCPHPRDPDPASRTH
Nature of the test: Elastase Inhibition - In Vitro Method (hydrolysis of MeO-Suc-Ala-Ala-Pro-Val-pNA, microtiter format). Type of test: biochemical. To be noted: for inhibition at 5 µg/mL: 5ug/mL compound; for IC50: 0.5 mM substrate, 15 minutes pre-incubation. The source says: The in vitro assay is based upon the hydrolysis of the commercially available (Sigma Chemical Company, St. Louis, Missouri) substrate methoxy O-succinyl-L-alanyl-L-alanyl-L-prolyl-L-valine para-nitroanilide (MeO-Suc-Ala-Sla-Pro-Val-pNA) and the resulting release of p-nitroanilide (pNA), which absorbs at 405 nm.
• a. Microtiter plates (96 well, flat bottom) • b. Vmax Kinetic Microtiter Plate Reader, equipped with 405 nm filter (Molecular Devices) • c. Microtiter Plate Mixer (Fisher Scientific) • d.
• a. Human sputum elastase ( HSE ) (Elasten Products Co., Pacific, Mo.) dissolved in 1 mg/mL in 0.05 M sodium chloride and frozen (50 µL aliquots) at -20°C until used. • b. Stock solution of MeO-Suc-Ala-Ala-Pro-Val-pNA dissolved at 15 mM in dimethylsulfoxide (DMSO) and frozen (4 mL aliquots) at -20°C until used. • c. Assay buffer: 0.1 M Tris buffer, pH 7.5 containing 0.5 sodium chloride
Screening is performed in microtiter plates, using 0.5 mM substrate and monitored on a Microtiter Reader. Enzyme activity (+/- test compound) is determined as the rate of pNA release (linear regression analysis of slope). Inhibitory activity of the test compound is calculated relative to the uninhibited enzyme control, as follows: [formula]
A frozen aliquot of HSE is thawed and diluted with assay buffer to a stock concentration of 0.02 mg/mL ( 30 x assay concentration). A frozen aliquot of the substrate stock solution is thawed and diluted to 0.5 mM with the assay buffer (final DMSO concentration is […]). 10 µl of the test compound stock solution (or assay buffer) and 10 µl of the HSE stock solution are pipetted into each microtiter well, in duplicate. The plate is mixed well, and pre-incubated at room temperature for 15 minutes. A 300 µl substrate solution is then added to each well and the OD₄₀₅ is followed for approximately 30 minutes.

The next test has as its system Total Complement. Nature of the test: Selectivity assay: Total Complement. As to conditions: IC50 of 5 or greater is considered inactive.
A further test concerns the target Human Cathepsin B (Homo sapiens, UniProt P07858). The test is described as follows: Selectivity assay: Human Cathepsin B. It is filed as biochemical. To be noted: IC50 of 5 or greater is considered inactive.
Test [3] addresses Tissue Plasminogen Activator (Homo sapiens, UniProt P00750). Nature of the test: Selectivity assay: Tissue Plasminogen Activator. It is filed as biochemical. To be noted: IC50 of 5 or greater is considered inactive.
In the next test the target is Human Urokinase (Homo sapiens, UniProt P00749). Nature of the test: Selectivity assay: Human Urokinase. To be noted: IC50 of 5 or greater is considered inactive. It is filed as biochemical.
The next test has as its system APTT. Nature of the test: Selectivity assay: APTT. As to conditions: IC50 of 5 or greater is considered inactive.
The next test addresses Polio 3C - Proteinase (Poliovirus type 1, UniProt P03300). The test is described as follows: biochemical.
The next test concerns the target T3, Human C1 Esterase (Homo sapiens, UniProt P09871).
T3 sequence (P09871 16-688): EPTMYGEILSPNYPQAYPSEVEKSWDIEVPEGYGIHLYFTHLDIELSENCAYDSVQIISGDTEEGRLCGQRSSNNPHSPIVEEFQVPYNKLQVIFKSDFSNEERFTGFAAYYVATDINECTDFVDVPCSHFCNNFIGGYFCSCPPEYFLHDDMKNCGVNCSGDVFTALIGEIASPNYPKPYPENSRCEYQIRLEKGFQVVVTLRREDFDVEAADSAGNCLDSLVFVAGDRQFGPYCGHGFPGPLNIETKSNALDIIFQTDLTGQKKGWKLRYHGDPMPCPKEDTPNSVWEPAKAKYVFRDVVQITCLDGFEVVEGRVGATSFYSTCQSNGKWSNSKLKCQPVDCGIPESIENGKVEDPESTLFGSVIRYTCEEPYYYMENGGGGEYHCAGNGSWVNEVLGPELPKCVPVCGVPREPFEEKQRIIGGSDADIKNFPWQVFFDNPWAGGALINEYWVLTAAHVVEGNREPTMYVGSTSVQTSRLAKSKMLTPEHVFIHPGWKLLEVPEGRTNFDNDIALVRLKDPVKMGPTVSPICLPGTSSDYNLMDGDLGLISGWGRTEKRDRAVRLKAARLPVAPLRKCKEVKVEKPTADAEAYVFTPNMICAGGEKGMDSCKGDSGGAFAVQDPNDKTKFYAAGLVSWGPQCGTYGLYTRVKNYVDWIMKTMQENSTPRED
Nature of the test: Selectivity assay: Human C1 Esterase. Type of test: biochemical. To be noted: IC50 of 5 or greater is considered inactive.

The test system of another test is PT. To be noted: IC50 of 5 or greater is considered inactive.
The target of a further test is T4, Human Renin (Homo sapiens, UniProt P00797).
T4 sequence (P00797 67-406): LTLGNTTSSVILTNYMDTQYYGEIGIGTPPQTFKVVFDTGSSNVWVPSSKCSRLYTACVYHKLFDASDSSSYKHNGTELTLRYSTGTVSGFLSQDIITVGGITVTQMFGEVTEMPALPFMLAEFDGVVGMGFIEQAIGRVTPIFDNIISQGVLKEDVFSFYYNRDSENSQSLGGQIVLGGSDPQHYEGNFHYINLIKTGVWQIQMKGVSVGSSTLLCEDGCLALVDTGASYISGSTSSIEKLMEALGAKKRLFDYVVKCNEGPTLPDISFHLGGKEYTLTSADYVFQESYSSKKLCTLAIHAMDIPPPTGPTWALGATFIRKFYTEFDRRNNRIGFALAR
Nature of the test: Selectivity assay: Human Renin. It is filed as biochemical. As to conditions: IC50 of 5 or greater is considered inactive.

Another test addresses T5, Human Cathepsin G (Homo sapiens, UniProt P08311).
T5 sequence (P08311 21-244): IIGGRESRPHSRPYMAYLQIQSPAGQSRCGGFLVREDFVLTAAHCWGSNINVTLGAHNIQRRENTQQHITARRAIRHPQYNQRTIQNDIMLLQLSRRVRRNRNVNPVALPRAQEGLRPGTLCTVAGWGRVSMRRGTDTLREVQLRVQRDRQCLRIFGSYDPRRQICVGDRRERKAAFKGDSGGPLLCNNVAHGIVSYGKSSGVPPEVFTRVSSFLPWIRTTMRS
Nature of the test: Selectivity assay: Human Cathepsin G. Type of test: biochemical. To be noted: IC50 of 5 or greater is considered inactive.

Setting [4] is: 0 % HSA, read-out: % Inhib. (5ug/mL) 0 % HSA.
Where [5] appears, read: 0.5 % HSA added, read-out: % Inhib. (5ug/mL) 0.5 % HSA.

Sequence of Polio 3C - Proteinase (P03300 1566-1748 limits assumed): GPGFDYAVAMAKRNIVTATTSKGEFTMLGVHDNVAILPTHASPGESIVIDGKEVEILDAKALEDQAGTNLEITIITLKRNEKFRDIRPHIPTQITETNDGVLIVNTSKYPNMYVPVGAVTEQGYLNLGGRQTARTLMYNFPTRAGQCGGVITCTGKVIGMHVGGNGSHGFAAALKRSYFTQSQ
Sequence of Tissue Plasminogen Activator (P00750 36-562): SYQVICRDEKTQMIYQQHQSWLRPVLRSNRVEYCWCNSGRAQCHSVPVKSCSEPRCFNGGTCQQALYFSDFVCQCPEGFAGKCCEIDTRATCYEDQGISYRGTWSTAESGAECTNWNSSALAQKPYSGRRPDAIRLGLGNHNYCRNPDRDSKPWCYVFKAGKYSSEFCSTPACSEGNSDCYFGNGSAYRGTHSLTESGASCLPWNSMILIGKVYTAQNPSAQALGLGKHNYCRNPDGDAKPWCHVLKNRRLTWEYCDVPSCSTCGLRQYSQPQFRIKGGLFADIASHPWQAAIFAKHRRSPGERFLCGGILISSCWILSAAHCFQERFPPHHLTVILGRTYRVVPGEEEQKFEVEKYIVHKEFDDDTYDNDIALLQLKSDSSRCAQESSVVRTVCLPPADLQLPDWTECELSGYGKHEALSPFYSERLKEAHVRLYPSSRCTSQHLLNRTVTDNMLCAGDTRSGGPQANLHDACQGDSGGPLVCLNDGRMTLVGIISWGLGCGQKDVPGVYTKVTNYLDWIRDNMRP

In the case of `CC(C)C(NC(=O)CN(C(=O)[C@@H](NC(=O)c1ccc(C(=O)NS(=O)(=O)c2ccc(Cl)cc2)cc1)C(C)C)C1CCCC1)C(=O)C(F)(F)F` (single isomer, unassigned) [Cyclopentyl, p-[p-Cl(C6H4)SO2NHCO](C6H4)CO - (Diastereomer of Above), [[4-(4-Chlorophenyl)sulfonylaminocarbonyl]phenyl-1-oxomethyl]-L-Valyl-N-cyclopentyl-glycyl-N-[3-(1,1,1-trifluoro-4-methyl-2-oxypentyl)]amide], in test [1], the “% Inhib. (20 ug. i.t.)” value is 99.0%. Also, the inhibition at 5 µg/mL was found to be 99.8% in test [2] (setting [4]) and 99.7% in test [2] (setting [5]).
As a reminder, the IC50 is the concentration that gives 50% inhibition. In the case of `COc1ccc(CCN(CC(=O)NC(C(=O)C(F)(F)F)C(C)C)C(=O)[C@@H](NC(=O)OCc2ccccc2)C(C)C)cc1OC` (stereo partly shown) [3,4 - Dimethoxyphenethyl, CBZ], the inhibition at 5 µg/mL in [2] (setting [4]) amounted to 95.1%; in [2] (setting [5]) it was 87.8%. Also, the IC50 in [2] (Table I) was 0.432 µg/mL.
`CC(C)C(NC(=O)CN(C(=O)[C@@H](NC(=O)c1ccc(C(=O)NS(=O)(=O)c2ccc(Cl)cc2)cc1)C(C)C)C1Cc2ccccc2C1)C(=O)C(F)(F)F` (stereo partly shown) [Compound of Table III]: the half-maximal inhibitory concentration (IC50) in the test with Total Complement is >> 100 ug/mL; against Human Cathepsin B, greater than 6.55 µM; in test [3], greater than 6.55 µM; on Human Urokinase, greater than 6.55 µM; in the test on APTT it was >> 100 ug/mL; against Polio 3C - Proteinase, greater than 82.5 µM. Further, the IC50 was greater than 6.55 µM against Human C1 Esterase, >> 100 ug/mL with PT, greater than 6.55 µM at Human Renin and greater than 9.17 µM against Human Cathepsin G.
With `CC(C)C(NC(=O)CN(C(=O)[C@@H](NC(=O)c1ccc(C(=O)NS(=O)(=O)c2ccc(Cl)cc2)cc1)C(C)C)C1CCCC1)C(=O)C(F)(F)F` (single isomer, unassigned) [[[4-(4-Chlorophenyl)sulfonylaminocarbonyl]phenyl-1-oxomethyl]-L-Valyl-N-cyclopentyl-glycyl-N-[3-(1,1,1-trifluoro-4-methyl-2-oxypentyl)]amide], the “% Inhib. (20 ug. i.t.)” value in test [1] came out at 99.2%. The inhibition at 5 µg/mL was determined as 100% in test [2] (setting [4]) and 99.8% in test [2] (setting [5]). In test [2] (Table I, read-out: IC50 (converted)), the IC50 was 0.113 µM and 0.0923 µM.
For the compound `COc1ccc(CCN(CC(=O)NC(C(=O)C(F)(F)F)C(C)C)C(=O)[C@@H](NC(=O)c2ccc(C(=O)NS(=O)(=O)c3ccc(Cl)cc3)cc2)C(C)C)cc1OC` (stereo partly drawn) [[(4-(4-Chlorophenyl)sulfonylaminocarbonyl]phenyl-1-oxomethyl]-L-Valyl-N-[2-(3,4-dimethoxy)phenethyl] glycyl-N-[3-(1,1,1-trifluoro-4-methyl-2-oxypentyl)] amide], the “% Inhib. (20 ug. i.t.)” value in test [1] came out at 90.2%. The inhibition at 5 µg/mL turned out to be 98.8% in test [2] (setting [4]) and 96.3% in [2] (setting [5]). The compound further had an IC50 in test [2] (IC50, Table I) of 0.103 µM.
For `CC(C)C(NC(=O)CN(C(=O)[C@@H](NC(=O)OCc1ccccc1)C(C)C)C1CCCC1)C(=O)C(F)(F)F` (stereo partly shown) [Cyclopentyl, CBZ], the inhibition at 5 µg/mL in test [2] (setting [4]) turned out to be 100%; in test [2] (setting [5]), 99.4%. This compound had an IC50 in test [2] (Table I) of 0.082 µg/mL.
Regarding `CC(C)C(NC(=O)CN(C(=O)[C@@H](NC(=O)c1ccc(C(=O)NS(=O)(=O)c2ccc(Cl)cc2)cc1)C(C)C)C1CC2CCC1C2)C(=O)C(F)(F)F` (stereo partly drawn) [[[4-(4-Chlorophenyl)sulfonylaminocarbonyl]phenyl-1-oxomethyl]-L-Valyl-N-(exo-bicyclo[2,2,1]hept-2-yl)glycyl-N-[3-(1,1,1-trifluoro-4-methyl-2-oxypentyl)]amide], the “% Inhib. (20 ug. i.t.)” value in [1] is 93.8%. Also, the inhibition at 5 µg/mL in test [2] (setting [4]) was 99.8%; in test [2] (setting [5]), 99.5%. This compound also displayed a half-maximal inhibitory concentration (IC50) in test [2] (Table I) of 0.045 µg/mL.
